# Measurements reported in patent publication US20110020914A1, “METHODS FOR ENHANCING GROWTH OF ORGANISMS IN AN AQUEOUS GROWTH MEDIUM” (NOVUS INTERNATIONAL INC, priority 2009, published 2011).
# Tests used:
# Type in all cases: cell-based
# Chlorella vulgaris [1] = assay: Effect of chelated micronutrients on protein content (Coomassie Blue G, 595 nm) of Chlorella vulgaris
# Experimental: To assess the efficacy of chelated micronutrients on the protein content of Chlorella vulgaris, a fresh-water green microalgae, the following experiment was conducted. Chlorella vulgaris microalgae colonies were cultured in algal culture media containing added BIOX-C, BIOX-Z, and BIOX-M as described in Example 3.
# Samples from each flask were taken after 2, 7, 12, 15, 21, and 30 days of growth in the flasks and analyzed in triplicate to determine the protein content of the microalgae cells. The protein contents of the microalgal colonies were determined by using a spectrophotometer to measure microalgal cells in which the proteins were marked with a dye. 0.04-mL culture samples were gently mixed with 2 ml of Coomassie Blue G dye in a 4 mL plastic cuvette. Cytoplasmic proteins were then measured by measuring the absorbance of the dyed sample at a wavelength of 595 nm using a […].
# Chlorella vulgaris [2] = assay: Effect of chelated micronutrients on growth (cell density, spectrophotometer 450 nm) of Chlorella vulgaris; conditions: up to 24 days, vs control
# Experimental: To assess the efficacy of chelated micronutrients on the growth of Chlorella vulgaris, a fresh-water green microalgae, the following experiment was conducted. Chlorella vulgaris microalgae were maintained in stock cultures as described in Example 1. The microalgae were inoculated at an initial concentration of about 10^4 cells/ml into 250 ml conical flasks containing 100 ml of an algal growth medium having a composition described in Table 3.
# Three different chelated micronutrient compositions were added to the growth medium of the flasks at six different concentrations to each algal culture for final concentrations of 0 mg/ml (control), […], 10^−4 mg/ml, 10^−3 mg/ml and 10^−2 mg/ml. The metal micronutrient compositions tested were Cu-HMTBA (BIOX-C), Zn-HMTBA (BIOX-Z), and Mn-HMTBA (BIOX-M). For each concentration of a particular micronutrient composition, three duplicate flasks were tested.
# The flasks containing the added compounds were cultured in a chamber in which the temperature was maintained at 21° C.-25° C. In addition, the chamber provided continuous uniform illumination with a quantum flux of 0.72 10-20 photon/m^2+/−20% in the spectral range of 400-700 nm (8000 flux). The contents of the flasks were shaken, stirred, or aerated during the experiment to facilitate the transfer of CO2 to the microalgae.
# Samples from each flask were taken after 2, 7, 12, 15, 18, 21, and 24 days of growth in the flasks and analyzed in quadruplicate to determine the cell density of the microalgae. The cell density was determined using a spectrophotometer at a wavelength setting of 450 nm and using a filtered growth medium sample as a blank. The sample volume analyzed was 100 μL per well.
# Chlorella vulgaris [3] = assay: Effect of chelated micronutrients on lipid accumulation (Nile Red fluorescence) in Chlorella vulgaris
# Experimental: To assess the efficacy of chelated micronutrients on the lipid content of Chlorella vulgaris, a fresh-water green microalgae, the following experiment was conducted. Chlorella vulgaris microalgae colonies were cultured in algal culture media containing added BIOX-C, BIOX-Z, and BIOX-M as described in Example 3. Samples from each flask were taken after 9, 30, and 39 days of growth in the flasks and analyzed in triplicate to determine the lipid content of the microalgae cells. A fluorometric method was used determine cellular lipid accumulation. 4-mL culture samples were mixed with Nile Red (9-diethylamino-5H-benzophenoxazine-5-one) at a 100:1 volume ratio and allowed to stain for about seven minutes. Cytoplasmic lipids were then measured by the florescence intensity using a fluorometer (excitation 475 nm; emission 585 nm). The relative fluorescence for lipid content was obtained after subtraction of both the autofluorescence of algal cells and the self-fluorescence of the Nile Red dye from the uncorrected readings at 585 nm wavelengths.
# Nitzchia sp. microalgae = assay: Effect of chelated zinc on growth (cell density) of Nitzchia sp. microalgae; conditions: 10^−3 mg/ml, 18 days, vs control
# Experimental: To assess the efficacy of HMTBA-chelated zinc (BIOX-Z) on the growth of microalgae from the genus Nitzchia, the following experiment was conducted. Microalgae from the genus Nitzchia was maintained in stock cultures as described in Example 1. The microalgae were inoculated into 1 L flasks and varying amounts of BIOX-Z were added to the flasks as described in Example 1. The Nitzchia cells were grown in the flasks as described in Example 1 for a total of 18 days. Samples were taken from the flasks each day to assess the cell density as described in Example 1.
# Dunaliella tertiolecta = assay: Effect of chelated zinc on growth (cell density, haemocytometer) of Dunaliella tertiolecta; conditions: cultured with 10^−6 to 10^−2 mg/ml in f/2 medium, 18 days, vs control
# Experimental: To assess the efficacy of adding HMTBA-chelated zinc (BIOX-Z) to the growth medium on the growth of the microalgae Dunaliella tertiolecta, the following experiment was conducted. Dunaliella tertiolecta was maintained in stock cultures in 20 ml test tubes at a cell density of about 2.5-5.0×10^4 cells/ml as seed cultures and maintained on a seven-day transfer cycle. The microalgae were inoculated into 1 L Pyrex glass Erlenmeyer flasks containing 250 ml of f/2 growth medium (Guillard 1975).
# BIOX-Z was dissolved in distilled water and added at six different concentrations to each algal culture for final concentrations of 0 mg/ml (control), 10^−6 mg/ml, 10^−5 mg/ml, 10^−4 mg/ml, 10^−3 mg/ml and 10^−2 mg/ml. Each of the six test groups included 3 individual flasks.
# The D. tertiolecta cells were grown in the flasks at a temperature of about 20° C. for a total of 18 days. Light was supplied to the cultures on a cycle of 12 hours of light and 12 hours of dark, at an intensity of 133-299 uEin/sec/cm^2 using a fluorescent light bulb bank (2-F20T12 Westinghouse cool white, Westinghouse Electric Corp., USA). Five samples from each of the test groups were taken each day, and the cell density of each sample was determined using a haemocytometer.
# [4] = 0.000001-0.0001 mg/mL, after thirty days of growth
# [5] = 0.001 mg/mL, thirty days of growth
# [6] = all concentrations, after 30 days of growth
# [7] = all concentrations, through the entire period of growth
structure (smiles),measurement,setting,value
"CSCCC(O)C(=O)[O-].CSCCC(O)C(=O)[O-].[Cu+2] (stereo not shown) [BIOX-C, Cu-HMTBA]",protein content relative to control,Chlorella vulgaris [1]; [4],10-12 times the control protein content
same,protein content relative to control,Chlorella vulgaris [1]; [5],about 4.5 times the control protein content
same,protein content of the microalgae cells,"Chlorella vulgaris [1]; 0.01 mg/mL, vs control cells",inhibited
same,protein content relative to control,"Chlorella vulgaris [1]; 10^−4 mg/mL, after thirty days of growth, largest enhancement of all compositions tested",about 12.8 times the control protein content
same,protein content of Chlorella vulgaris cells,"Chlorella vulgaris [1]; all concentrations except 0.01 mg/mL, at twelve days of growth or longer",enhanced
same,growth of Chlorella vulgaris (cell density),Chlorella vulgaris [2]; 10^−2 mg/mL,inhibited
same,growth of Chlorella vulgaris (cell density),Chlorella vulgaris [2]; 10^−3 mg/mL,no effect
same,growth of Chlorella vulgaris (cell density),Chlorella vulgaris [2]; 10^−4 mg/mL,enhanced
same,growth of Chlorella vulgaris (cell density),Chlorella vulgaris [2]; 10^−5 mg/mL,enhanced
same,growth of Chlorella vulgaris (cell density),Chlorella vulgaris [2]; 10^−6 mg/mL,enhanced
same,enhancement of microalgal lipid content compared with all compositions tested,Chlorella vulgaris [3]; 10^−2 mg/mL,largest enhancement
same,lipid content of Chlorella vulgaris cells,"Chlorella vulgaris [3]; 10^−2 mg/mL, after 39 days of growth",higher lipid content than the control colony
same,lipid content of Chlorella vulgaris cells,"Chlorella vulgaris [3]; 10^−3 mg/mL, after 39 days of growth",higher lipid content than the control colony
same,lipid content of Chlorella vulgaris cells,"Chlorella vulgaris [3]; all concentrations, after 9 days of growth",enhanced
same,lipid content of Chlorella vulgaris cells,Chlorella vulgaris [3]; [6],enhanced
"CSCCC(O)C(=O)[O-].CSCCC(O)C(=O)[O-].[Mn+2] (stereo not shown) [BIOX-M, Mn-HMTBA]",protein content relative to control,Chlorella vulgaris [1]; [4],10-12 times the control protein content
same,protein content relative to control,Chlorella vulgaris [1]; [5],7-8 times the control protein content
same,protein content relative to control,"Chlorella vulgaris [1]; 0.01 mg/mL, thirty days of growth",7-8 times the control protein content
same,protein content of Chlorella vulgaris colonies,"Chlorella vulgaris [1]; all concentrations, after 21 days or more of growth",enhanced
same,growth of Chlorella vulgaris (cell density),Chlorella vulgaris [2]; 10^−2 mg/mL,enhanced
same,growth of Chlorella vulgaris (cell density),Chlorella vulgaris [2]; 10^−3 mg/mL,inhibited
same,growth of Chlorella vulgaris (cell density),Chlorella vulgaris [2]; 10^−4 mg/mL,enhanced
same,growth of Chlorella vulgaris (cell density),Chlorella vulgaris [2]; 10^−5 mg/mL,enhanced
same,growth of Chlorella vulgaris (cell density),Chlorella vulgaris [2]; 10^−6 mg/mL,enhanced
same,lipid content of Chlorella vulgaris colonies,"Chlorella vulgaris [3]; 10^−5 mg/mL, after 39 days",enhanced to a lesser degree
same,lipid content of Chlorella vulgaris colonies,"Chlorella vulgaris [3]; 10^−6 mg/mL, after 39 days",enhanced to a lesser degree
same,lipid content of Chlorella vulgaris cells,Chlorella vulgaris [3]; [6],enhanced
same,lipid content of Chlorella vulgaris colonies,"Chlorella vulgaris [3]; concentrations of less than 10^−2 mg/mL, after nine days",enhanced
"CSCCC(O)C(=O)[O-].CSCCC(O)C(=O)[O-].[Zn+2] (stereo not shown) [BIOX-Z, Zn-HMTBA]","protein content of Chlorella vulgaris cells, concentration of greatest enhancement",Chlorella vulgaris [1]; 10^−5 mg/mL,most enhanced
same,protein content relative to control,"Chlorella vulgaris [1]; 10^−5 mg/mL, after 30 days of growth",over twelve times
same,protein content of Chlorella vulgaris cells,Chlorella vulgaris [1]; [7],enhanced
same,growth of Chlorella vulgaris (cell density),Chlorella vulgaris [2]; 10^−2 mg/mL,no effect
same,growth of Chlorella vulgaris (cell density),Chlorella vulgaris [2]; 10^−3 mg/mL,enhanced
same,growth of Chlorella vulgaris (cell density),Chlorella vulgaris [2]; 10^−4 mg/mL,enhanced
same,growth of Chlorella vulgaris (cell density),Chlorella vulgaris [2]; 10^−5 mg/mL,enhanced
same,growth of Chlorella vulgaris (cell density),Chlorella vulgaris [2]; 10^−6 mg/mL,enhanced
same,concentration of Nitzchia cells,Nitzchia sp. microalgae,enhanced
same,concentration of D. tertiolecta cells,Dunaliella tertiolecta,enhanced
same,"lipid content of Chlorella vulgaris cells, concentration of greatest enhancement",Chlorella vulgaris [3]; 10^−3 mg/mL,most enhanced
same,lipid content of Chlorella vulgaris cells,Chlorella vulgaris [3]; [7],enhanced
